The record followed here is ChEMBL document CHEMBL3880412, “Indole derivatives as CFTR modulators” (2009).

In general, Emax refers to the greatest response seen or fitted, relative to the assay's reference.

The subject of the assay is Cystic fibrosis transmembrane conductance regulator (Homo sapiens), P13569 [F508del]. Nature of the assay: Correction activity at CFTR F508 deletion mutant (unknown origin) expressed in mouse NIH/3T3 cells assessed as increase in cAMP/genistein-dependent current amplitude at 10 uM incubated for 10 mins at 37 degC by patch clamp method relative to control. It counts as cell-based. For orientation: The patch-clamp technique gives a direct electrical read-out from membranes.

Cystic fibrosis transmembrane conductance regulator (Homo sapiens), P13569 [F508del], sequence (P13569 as listed by the source): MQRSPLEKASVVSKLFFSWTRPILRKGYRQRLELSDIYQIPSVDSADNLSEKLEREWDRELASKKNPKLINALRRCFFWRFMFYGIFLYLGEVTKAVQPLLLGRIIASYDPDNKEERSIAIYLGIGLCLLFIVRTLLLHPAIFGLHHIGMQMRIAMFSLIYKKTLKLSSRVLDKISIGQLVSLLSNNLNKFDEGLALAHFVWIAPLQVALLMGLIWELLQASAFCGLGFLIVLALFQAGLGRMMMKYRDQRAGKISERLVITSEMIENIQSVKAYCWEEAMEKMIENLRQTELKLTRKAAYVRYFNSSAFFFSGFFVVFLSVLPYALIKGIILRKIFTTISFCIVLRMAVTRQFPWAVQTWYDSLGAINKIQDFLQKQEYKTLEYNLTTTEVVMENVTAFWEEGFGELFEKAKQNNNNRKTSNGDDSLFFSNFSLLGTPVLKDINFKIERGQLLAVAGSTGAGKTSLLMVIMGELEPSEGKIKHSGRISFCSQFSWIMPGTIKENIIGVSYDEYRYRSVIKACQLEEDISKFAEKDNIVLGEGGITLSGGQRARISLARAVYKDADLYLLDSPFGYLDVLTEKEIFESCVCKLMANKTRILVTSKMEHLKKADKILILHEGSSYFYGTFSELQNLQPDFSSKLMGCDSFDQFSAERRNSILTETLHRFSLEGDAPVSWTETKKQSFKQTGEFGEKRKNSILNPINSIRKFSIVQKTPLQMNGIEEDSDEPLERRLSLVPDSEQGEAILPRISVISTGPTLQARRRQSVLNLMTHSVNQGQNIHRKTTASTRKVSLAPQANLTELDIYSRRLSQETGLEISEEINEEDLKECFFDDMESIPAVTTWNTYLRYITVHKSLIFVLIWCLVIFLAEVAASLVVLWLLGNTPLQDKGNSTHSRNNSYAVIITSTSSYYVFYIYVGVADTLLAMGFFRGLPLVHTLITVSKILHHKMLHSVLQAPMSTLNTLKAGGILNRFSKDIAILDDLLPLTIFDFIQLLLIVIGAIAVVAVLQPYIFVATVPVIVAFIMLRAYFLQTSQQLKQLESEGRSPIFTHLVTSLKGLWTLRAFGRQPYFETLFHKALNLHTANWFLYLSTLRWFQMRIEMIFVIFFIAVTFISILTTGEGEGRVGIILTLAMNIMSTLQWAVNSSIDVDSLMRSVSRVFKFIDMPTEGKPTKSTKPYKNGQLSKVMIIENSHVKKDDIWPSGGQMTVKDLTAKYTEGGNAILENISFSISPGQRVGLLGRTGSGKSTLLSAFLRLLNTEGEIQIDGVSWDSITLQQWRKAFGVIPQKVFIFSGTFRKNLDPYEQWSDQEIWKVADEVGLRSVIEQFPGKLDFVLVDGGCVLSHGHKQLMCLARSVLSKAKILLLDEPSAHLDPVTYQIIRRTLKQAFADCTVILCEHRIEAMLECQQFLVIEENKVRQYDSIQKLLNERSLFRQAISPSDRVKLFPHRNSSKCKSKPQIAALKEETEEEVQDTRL

As for `CC(C)(C)c1cc2cc(NC(=O)C3(c4ccc5c(c4)OCO5)CC3)c(F)cc2n1C[C@@H](O)CO`, the Emax lay in the range of 120 to 132%. Consider `CC(C)(C)c1cc2cc(NC(=O)C3(c4ccc5c(c4)OC(F)(F)O5)CC3)c(F)cc2n1CC[N+](C)(C)C`, for which the Emax was 122%.
